Experimental data as given in PMC6891286, “Towards the Development of an In vivo Chemical Probe for Cyclin G Associated Kinase (GAK)” (Molecules, 2019).

Tests used:
Assay in all cases: KINOMEscan
Format in all cases: binding
Conditions in all cases: 35 at 1 µM; read-out: % inhibition
[1] = biological target: T1, GRK7 (Homo sapiens, UniProt Q8WTQ7)
T1 construct: purchased Eurofins DiscoverX (KINOMEscan)
Method: (§1) KinomeScan Assay on 35 was performed as previously described at EuroFins DiscoverX (Fremont, CA, USA).

[2] = biological target: T2, KIT(L576P) (Homo sapiens, UniProt P10721, L576P)
T2 construct: purchased Eurofins DiscoverX (KINOMEscan)
Method: as §1

[3] = biological target: T3, DDR2 (Homo sapiens, UniProt Q16832)
T3 construct: purchased Eurofins DiscoverX (KINOMEscan)
Method: as §1

[4] = biological target: T4, CIT (Homo sapiens, UniProt O14578)
T4 construct: purchased Eurofins DiscoverX (KINOMEscan)
Method: as §1

[5] = biological target: T5, S6K1 (Homo sapiens, UniProt P23443)
T5 construct: purchased Eurofins DiscoverX (KINOMEscan)
Method: as §1

[6] = biological target: T6, WEE2 (Homo sapiens, UniProt P0C1S8)
T6 construct: purchased Eurofins DiscoverX (KINOMEscan)
Method: as §1

[7] = biological target: T7, CDC2L2 (Homo sapiens, UniProt Q9UQ88)
T7 construct: purchased Eurofins DiscoverX (KINOMEscan)
Method: as §1

[8] = biological target: T8, MAST1 (Homo sapiens, UniProt Q9Y2H9)
T8 construct: purchased Eurofins DiscoverX (KINOMEscan)
Method: as §1

[9] = biological target: T9, PKN2 (Homo sapiens, UniProt Q16513)
T9 construct: purchased Eurofins DiscoverX (KINOMEscan)
Method: as §1

[10] = biological target: T10, ULK1 (Homo sapiens, UniProt O75385)
T10 construct: purchased Eurofins DiscoverX (KINOMEscan)
Method: as §1

[11] = biological target: T11, ABL1(F317I)-nonphosphorylated (Homo sapiens, UniProt P00519, F317I)
T11 construct: purchased Eurofins DiscoverX (KINOMEscan)
Method: as §1

[12] = biological target: T12, ACVR2B (Homo sapiens, UniProt Q13705)
T12 construct: purchased Eurofins DiscoverX (KINOMEscan)
Method: as §1

[13] = biological target: T13, EGFR(L861Q) (Homo sapiens, UniProt P00533, L861Q)
T13 construct: purchased Eurofins DiscoverX (KINOMEscan)
Method: as §1

[14] = biological target: T14, ERK1 (Homo sapiens, UniProt P27361)
T14 construct: purchased Eurofins DiscoverX (KINOMEscan)
Method: as §1

[15] = biological target: T15, p38-delta (Homo sapiens, UniProt O15264)
T15 construct: purchased Eurofins DiscoverX (KINOMEscan)
Method: as §1

[16] = biological target: T16, NDR2 (Homo sapiens, UniProt Q9Y2H1)
T16 construct: purchased Eurofins DiscoverX (KINOMEscan)
Method: as §1

[17] = biological target: T17, TNNI3K (Homo sapiens, UniProt Q59H18)
T17 construct: purchased Eurofins DiscoverX (KINOMEscan)
Method: as §1

[18] = biological target: T18, QSK (Homo sapiens, UniProt Q9Y2K2)
T18 construct: purchased Eurofins DiscoverX (KINOMEscan)
Method: as §1

[19] = biological target: T19, MAP4K5 (Homo sapiens, UniProt Q9Y4K4)
T19 construct: purchased Eurofins DiscoverX (KINOMEscan)
Method: as §1

[20] = biological target: T20, CTK (Homo sapiens, UniProt P42679)
T20 construct: purchased Eurofins DiscoverX (KINOMEscan)
Method: as §1

[21] = biological target: T21, FGFR3 (Homo sapiens, UniProt P22607)
T21 construct: purchased Eurofins DiscoverX (KINOMEscan)
Method: as §1

[22] = biological target: T22, TAK1 (Homo sapiens, UniProt O43318)
T22 construct: purchased Eurofins DiscoverX (KINOMEscan)
Method: as §1

[23] = biological target: T23, PAK6 (Homo sapiens, UniProt Q9NQU5)
T23 construct: purchased Eurofins DiscoverX (KINOMEscan)
Method: as §1

[24] = biological target: T24, BUB1 (Homo sapiens, UniProt O43683)
T24 construct: purchased Eurofins DiscoverX (KINOMEscan)
Method: as §1

[25] = biological target: T25, CSNK1G1 (Homo sapiens, UniProt Q9HCP0)
T25 construct: purchased Eurofins DiscoverX (KINOMEscan)
Method: as §1

[26] = biological target: T26, RSK2(Kin.Dom.1-N-terminal) (Homo sapiens, UniProt P51812)
T26 construct: RSK2(Kin.Dom.1-N-terminal); purchased Eurofins DiscoverX (KINOMEscan)
Method: as §1

[27] = biological target: T27, AURKB (Homo sapiens, UniProt Q96GD4)
T27 construct: purchased Eurofins DiscoverX (KINOMEscan)
Method: as §1

[28] = biological target: T28, SBK1 (Homo sapiens, UniProt Q52WX2)
T28 construct: purchased Eurofins DiscoverX (KINOMEscan)
Method: as §1

[29] = biological target: T29, PKN1 (Homo sapiens, UniProt Q16512)
T29 construct: purchased Eurofins DiscoverX (KINOMEscan)
Method: as §1

[30] = biological target: T30, MAP3K3 (Homo sapiens, UniProt Q99759)
T30 construct: purchased Eurofins DiscoverX (KINOMEscan)
Method: as §1

[31] = biological target: T31, DRAK1 (Homo sapiens, UniProt Q9UEE5)
T31 construct: purchased Eurofins DiscoverX (KINOMEscan)
Method: as §1

[32] = biological target: T32, CDKL3 (Homo sapiens, UniProt Q8IVW4)
T32 construct: purchased Eurofins DiscoverX (KINOMEscan)
Method: as §1

[33] = biological target: T33, MLCK (Homo sapiens, UniProt Q32MK0)
T33 construct: purchased Eurofins DiscoverX (KINOMEscan)
Method: as §1

[34] = biological target: T34, CSNK1A1L (Homo sapiens, UniProt Q8N752)
T34 construct: purchased Eurofins DiscoverX (KINOMEscan)
Method: as §1

[35] = biological target: T35, PFPK5(P.falciparum) (Plasmodium falciparum, UniProt P61075)
T35 construct: purchased Eurofins DiscoverX (KINOMEscan)
Method: as §1

[36] = biological target: T36, MST2 (Homo sapiens, UniProt Q13188)
T36 construct: purchased Eurofins DiscoverX (KINOMEscan)
Method: as §1

[37] = biological target: T37, MEK2 (Homo sapiens, UniProt P36507)
T37 construct: purchased Eurofins DiscoverX (KINOMEscan)
Method: as §1

[38] = biological target: T38, MAP4K3 (Homo sapiens, UniProt Q8IVH8)
T38 construct: purchased Eurofins DiscoverX (KINOMEscan)
Method: as §1

[39] = biological target: T39, ABL1(T315I)-phosphorylated (Homo sapiens, UniProt P00519, T315I)
T39 construct: purchased Eurofins DiscoverX (KINOMEscan)
Method: as §1

[40] = biological target: T40, CSNK1E (Homo sapiens, UniProt P49674)
T40 construct: purchased Eurofins DiscoverX (KINOMEscan)
Method: as §1

[41] = biological target: T41, MAK (Homo sapiens, UniProt P20794)
T41 construct: purchased Eurofins DiscoverX (KINOMEscan)
Method: as §1

[42] = biological target: T42, EPHA2 (Homo sapiens, UniProt P29317)
T42 construct: purchased Eurofins DiscoverX (KINOMEscan)
Method: as §1

[43] = biological target: T43, EGFR(L858R,T790M) (Homo sapiens, UniProt P00533, L858R/T790M)
T43 construct: purchased Eurofins DiscoverX (KINOMEscan)
Method: as §1

T4 sequence (O14578 whole entry): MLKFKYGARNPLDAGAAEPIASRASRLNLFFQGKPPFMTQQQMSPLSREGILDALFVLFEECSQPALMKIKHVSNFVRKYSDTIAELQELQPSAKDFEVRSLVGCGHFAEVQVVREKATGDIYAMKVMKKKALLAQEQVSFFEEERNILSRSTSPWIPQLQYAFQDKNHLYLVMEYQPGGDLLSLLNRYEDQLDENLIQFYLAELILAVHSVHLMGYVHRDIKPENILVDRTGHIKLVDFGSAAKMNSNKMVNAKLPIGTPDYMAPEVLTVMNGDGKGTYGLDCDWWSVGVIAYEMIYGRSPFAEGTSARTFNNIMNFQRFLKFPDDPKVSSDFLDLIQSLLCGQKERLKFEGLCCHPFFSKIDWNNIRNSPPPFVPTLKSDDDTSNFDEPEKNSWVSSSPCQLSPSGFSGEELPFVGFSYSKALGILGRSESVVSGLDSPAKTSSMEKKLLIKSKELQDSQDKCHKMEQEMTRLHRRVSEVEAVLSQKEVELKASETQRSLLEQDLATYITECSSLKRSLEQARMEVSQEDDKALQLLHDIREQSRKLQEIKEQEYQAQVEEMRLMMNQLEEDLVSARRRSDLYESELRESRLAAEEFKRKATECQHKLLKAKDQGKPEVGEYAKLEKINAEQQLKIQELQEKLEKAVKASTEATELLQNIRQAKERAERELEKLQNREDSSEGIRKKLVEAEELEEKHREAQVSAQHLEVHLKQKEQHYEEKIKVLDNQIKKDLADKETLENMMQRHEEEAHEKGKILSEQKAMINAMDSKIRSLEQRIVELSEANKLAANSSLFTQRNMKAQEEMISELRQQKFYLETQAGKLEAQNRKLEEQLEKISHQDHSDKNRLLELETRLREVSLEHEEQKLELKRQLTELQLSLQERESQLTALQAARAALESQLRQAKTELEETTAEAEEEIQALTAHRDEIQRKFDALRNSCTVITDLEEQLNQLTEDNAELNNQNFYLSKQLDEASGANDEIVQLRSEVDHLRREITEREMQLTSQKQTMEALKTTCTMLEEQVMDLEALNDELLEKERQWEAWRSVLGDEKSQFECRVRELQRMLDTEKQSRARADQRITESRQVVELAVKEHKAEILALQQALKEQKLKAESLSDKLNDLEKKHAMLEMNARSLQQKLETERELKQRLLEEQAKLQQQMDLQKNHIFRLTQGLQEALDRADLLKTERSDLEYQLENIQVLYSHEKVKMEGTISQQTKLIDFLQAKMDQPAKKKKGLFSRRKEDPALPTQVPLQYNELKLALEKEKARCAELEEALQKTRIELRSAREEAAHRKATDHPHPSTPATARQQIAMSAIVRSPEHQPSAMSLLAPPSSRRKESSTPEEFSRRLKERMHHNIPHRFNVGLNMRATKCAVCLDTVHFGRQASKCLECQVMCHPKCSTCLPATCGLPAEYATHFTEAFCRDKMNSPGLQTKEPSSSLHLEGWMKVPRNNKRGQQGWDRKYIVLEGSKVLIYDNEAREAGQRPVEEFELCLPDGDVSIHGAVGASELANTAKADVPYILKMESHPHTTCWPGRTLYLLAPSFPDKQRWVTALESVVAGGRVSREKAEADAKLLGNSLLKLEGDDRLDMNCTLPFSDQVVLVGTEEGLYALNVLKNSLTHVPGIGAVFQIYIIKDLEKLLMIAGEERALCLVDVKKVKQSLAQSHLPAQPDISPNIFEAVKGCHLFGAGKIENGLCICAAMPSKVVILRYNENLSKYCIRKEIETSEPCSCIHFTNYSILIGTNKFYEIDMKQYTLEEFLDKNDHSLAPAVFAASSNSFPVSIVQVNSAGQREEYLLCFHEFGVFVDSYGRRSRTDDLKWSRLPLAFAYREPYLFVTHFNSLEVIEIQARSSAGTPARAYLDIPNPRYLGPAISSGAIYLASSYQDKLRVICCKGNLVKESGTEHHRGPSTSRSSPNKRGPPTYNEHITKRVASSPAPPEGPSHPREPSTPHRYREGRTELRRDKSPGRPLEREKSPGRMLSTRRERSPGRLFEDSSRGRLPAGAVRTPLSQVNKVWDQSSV
T32 sequence (Q8IVW4 whole entry): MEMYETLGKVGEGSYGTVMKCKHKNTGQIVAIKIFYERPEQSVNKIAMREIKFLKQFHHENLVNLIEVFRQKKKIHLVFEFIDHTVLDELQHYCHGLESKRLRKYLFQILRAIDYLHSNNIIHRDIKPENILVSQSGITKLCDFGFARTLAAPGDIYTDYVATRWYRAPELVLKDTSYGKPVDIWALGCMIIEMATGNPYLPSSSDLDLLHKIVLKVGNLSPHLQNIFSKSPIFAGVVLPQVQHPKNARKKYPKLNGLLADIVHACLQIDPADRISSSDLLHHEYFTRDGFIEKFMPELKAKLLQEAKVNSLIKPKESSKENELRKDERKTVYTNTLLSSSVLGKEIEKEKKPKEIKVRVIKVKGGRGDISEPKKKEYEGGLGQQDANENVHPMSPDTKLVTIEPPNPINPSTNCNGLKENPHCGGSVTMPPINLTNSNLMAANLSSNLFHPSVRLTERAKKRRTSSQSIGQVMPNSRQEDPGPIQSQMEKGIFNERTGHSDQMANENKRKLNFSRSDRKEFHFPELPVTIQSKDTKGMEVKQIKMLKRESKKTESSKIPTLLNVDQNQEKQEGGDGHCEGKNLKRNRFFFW
T12 sequence (Q13705 19-512): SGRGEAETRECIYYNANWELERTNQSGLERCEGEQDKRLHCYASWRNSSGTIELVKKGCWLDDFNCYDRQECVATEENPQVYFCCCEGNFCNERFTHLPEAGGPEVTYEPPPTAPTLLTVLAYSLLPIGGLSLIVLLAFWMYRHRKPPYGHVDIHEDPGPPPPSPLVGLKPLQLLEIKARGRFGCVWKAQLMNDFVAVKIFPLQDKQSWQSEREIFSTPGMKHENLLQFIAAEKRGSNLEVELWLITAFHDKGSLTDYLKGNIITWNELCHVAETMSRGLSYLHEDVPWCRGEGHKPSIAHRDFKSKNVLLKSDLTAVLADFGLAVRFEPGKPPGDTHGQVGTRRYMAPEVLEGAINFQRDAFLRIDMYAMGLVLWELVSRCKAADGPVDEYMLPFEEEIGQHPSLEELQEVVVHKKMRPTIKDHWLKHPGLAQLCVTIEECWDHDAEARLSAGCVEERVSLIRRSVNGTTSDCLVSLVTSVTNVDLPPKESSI
T40 sequence (P49674 whole entry): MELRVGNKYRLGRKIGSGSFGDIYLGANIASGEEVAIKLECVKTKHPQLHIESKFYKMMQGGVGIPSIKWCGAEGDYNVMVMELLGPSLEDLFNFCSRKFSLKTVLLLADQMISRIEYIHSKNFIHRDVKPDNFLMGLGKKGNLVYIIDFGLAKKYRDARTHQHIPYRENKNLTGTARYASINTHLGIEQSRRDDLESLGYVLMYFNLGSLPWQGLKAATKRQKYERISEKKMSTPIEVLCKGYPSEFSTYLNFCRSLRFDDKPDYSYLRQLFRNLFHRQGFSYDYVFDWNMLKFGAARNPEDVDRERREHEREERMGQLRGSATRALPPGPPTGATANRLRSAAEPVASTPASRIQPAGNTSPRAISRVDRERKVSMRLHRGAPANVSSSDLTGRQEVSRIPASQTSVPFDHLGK
T29 sequence (Q16512 whole entry): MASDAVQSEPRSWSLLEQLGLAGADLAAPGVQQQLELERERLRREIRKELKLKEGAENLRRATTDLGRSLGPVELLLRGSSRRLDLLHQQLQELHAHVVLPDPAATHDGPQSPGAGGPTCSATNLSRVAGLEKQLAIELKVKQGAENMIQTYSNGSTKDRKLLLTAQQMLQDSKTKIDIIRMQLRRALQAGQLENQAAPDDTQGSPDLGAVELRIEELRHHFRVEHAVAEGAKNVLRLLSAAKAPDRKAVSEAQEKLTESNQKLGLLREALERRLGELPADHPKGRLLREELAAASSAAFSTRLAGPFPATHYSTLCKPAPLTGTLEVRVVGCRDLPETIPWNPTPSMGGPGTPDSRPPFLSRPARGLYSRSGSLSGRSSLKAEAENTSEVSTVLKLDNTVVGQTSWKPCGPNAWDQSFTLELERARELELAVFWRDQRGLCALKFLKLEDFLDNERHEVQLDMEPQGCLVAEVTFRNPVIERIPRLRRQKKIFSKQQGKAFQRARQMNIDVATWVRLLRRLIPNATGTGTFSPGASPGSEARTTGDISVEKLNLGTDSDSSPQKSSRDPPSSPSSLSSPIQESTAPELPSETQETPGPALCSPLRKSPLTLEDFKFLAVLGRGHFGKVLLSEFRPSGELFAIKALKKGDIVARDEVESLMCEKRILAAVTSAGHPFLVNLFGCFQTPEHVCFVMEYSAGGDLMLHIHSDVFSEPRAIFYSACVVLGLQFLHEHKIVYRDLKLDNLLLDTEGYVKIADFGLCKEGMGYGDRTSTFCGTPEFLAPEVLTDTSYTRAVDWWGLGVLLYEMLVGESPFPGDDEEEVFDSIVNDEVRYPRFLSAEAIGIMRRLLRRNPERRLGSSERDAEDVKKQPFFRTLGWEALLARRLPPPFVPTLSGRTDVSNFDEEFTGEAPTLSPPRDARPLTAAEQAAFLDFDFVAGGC
T34 sequence (Q8N752 whole entry): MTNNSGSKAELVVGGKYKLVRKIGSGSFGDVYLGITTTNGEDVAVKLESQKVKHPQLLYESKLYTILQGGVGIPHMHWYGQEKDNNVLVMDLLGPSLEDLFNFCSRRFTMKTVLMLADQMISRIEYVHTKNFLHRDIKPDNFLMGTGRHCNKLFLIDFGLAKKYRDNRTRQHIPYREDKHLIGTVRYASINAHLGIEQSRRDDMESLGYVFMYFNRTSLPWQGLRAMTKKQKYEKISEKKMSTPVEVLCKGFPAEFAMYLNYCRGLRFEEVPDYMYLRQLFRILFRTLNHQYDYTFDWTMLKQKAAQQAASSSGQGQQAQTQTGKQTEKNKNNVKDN

## Brc1ccc2nccc(Nc3ccc4cn[nH]c4c3)c2c1 [Compound 35, 6-Bromo-N-(1H-indazol-6-yl)quinolin-4-amine]
[1]
  activity at 1 µM: 100%
[2]
  activity at 1 µM: 100%
[3]
  activity at 1 µM: 100%
[4]
  activity at 1 µM: 86%
[5]
  activity at 1 µM: 91%
[6]
  activity at 1 µM: 97%
[7]
  activity at 1 µM: 70%
[8]
  activity at 1 µM: 100%
[9]
  activity at 1 µM: 99%
[10]
  activity at 1 µM: 91%
[11]
  activity at 1 µM: 77%
[12]
  activity at 1 µM: 36%
[13]
  activity at 1 µM: 100%
[14]
  activity at 1 µM: 100%
[15]
  activity at 1 µM: 100%
[16]
  activity at 1 µM: 89%
[17]
  activity at 1 µM: 100%
[18]
  activity at 1 µM: 100%
[19]
  activity at 1 µM: 100%
[20]
  activity at 1 µM: 93%
[21]
  activity at 1 µM: 100%
[22]
  activity at 1 µM: 100%
[23]
  activity at 1 µM: 100%
[24]
  activity at 1 µM: 93%
[25]
  activity at 1 µM: 100%
[26]
  activity at 1 µM: 90%
[27]
  activity at 1 µM: 90%
[28]
  activity at 1 µM: 99%
[29]
  activity at 1 µM: 100%
[30]
  activity at 1 µM: 100%
[31]
  activity at 1 µM: 100%
[32]
  activity at 1 µM: 100%
[33]
  activity at 1 µM: 100%
[34]
  activity at 1 µM: 96%
[35]
  activity at 1 µM: 100%
[36]
  activity at 1 µM: 100%
[37]
  activity at 1 µM: 50%
[38]
  activity at 1 µM: 100%
[39]
  activity at 1 µM: 95%
[40]
  activity at 1 µM: 100%
[41]
  activity at 1 µM: 100%
[42]
  activity at 1 µM: 100%
[43]
  activity at 1 µM: 98%
